This passage reports Activity and Time results from ChEMBL document CHEMBL3272111, “Synthesis of 2-benzyloxy and 2-benzylthio analogues of primaquine as potential antimalarials” (1977).

Each structure is given as a SMILES string. Calls of active or inactive are those of the source. No cut-off for these calls is given here.

The test system of assay [1] is Plasmodium cynomolgi. Description: Antimalarial activity against Plasmodium cynomolgi infected in monkey assessed as curative activity without disease relapses until 90 days at 1 mg/kg, po by radical curative monkey test. Type of assay: functional, organism-based. Also noted: dose 1 mg/kg.
In assay [2] the test system is Plasmodium berghei. As to the kind of experiment: Antimalarial activity against Plasmodium berghei infected in mouse at 640 mg/kg. The format is functional, organism-based. Also noted: dose 640 mg/kg.
The test system of assay [3] is Plasmodium cynomolgi. Description: Antimalarial activity against Plasmodium cynomolgi infected in monkey assessed as relapses day at 0.5 mg/kg, po. The format is functional.
Assay [4] concerns Plasmodium cynomolgi. As to the kind of experiment: Antimalarial activity against Plasmodium cynomolgi infected in monkey assessed as relapses day at 1 mg/kg, po. The format is functional.
Assay [5] relates to Plasmodium cynomolgi. As to the kind of experiment: Antimalarial activity against Plasmodium cynomolgi infected in monkey assessed as relapses day at 0.25 mg/kg, po. The format is functional.
Assay [6] deals with Plasmodium cynomolgi. As to the kind of experiment: Antimalarial activity against Plasmodium cynomolgi infected in monkey assessed as relapses day at 10 mg/kg, po. The format is functional.
In assay [7] the test system is Plasmodium cynomolgi. Description: Antimalarial activity against Plasmodium cynomolgi infected in monkey assessed as curative activity without disease relapses until 90 days at 1.5 mg/kg, po by radical curative monkey test. The format is functional, organism-based. Also noted: dose 1.5 mg/kg.
Assay [8] concerns Plasmodium cynomolgi. As to the kind of experiment: Antimalarial activity against Plasmodium cynomolgi infected in monkey assessed as curative activity without disease relapses until 90 days at 0.75 mg/kg, po by radical curative monkey test. Type of assay: functional, organism-based. Details: dose 0.75 mg/kg.
The subject of assay [9] is Plasmodium cynomolgi. Description: Antimalarial activity against Plasmodium cynomolgi infected in monkey assessed as curative activity without disease relapses until 90 days at 0.375 mg/kg, po by radical curative monkey test. Also noted: dose 0.375 mg/kg. The format is functional, organism-based.
Assay [10] concerns Plasmodium cynomolgi. As to the kind of experiment: Antimalarial activity against Plasmodium cynomolgi infected in monkey assessed as relapses day at 0.375 mg/kg, po. Type of assay: functional.
Assay [11] concerns Plasmodium berghei. As to the kind of experiment: Antimalarial activity against Plasmodium berghei infected in mouse at 320 to 640 mg/kg. The format is functional, organism-based.

As for `COc1cc(NC(C)CCCN)c2nc(OCc3ccc(Cl)cc3Cl)ccc2c1.O=C(O)/C=C\C(=O)O` (stereo unspecified), the result in assay [1] and in assay [2] was Active. For the same molecule, the Time in assay [3] was 8 days.
As to `COc1cc(NC(C)CCCN)c2nc(OCc3cccc(C(F)(F)F)c3)ccc2c1.O=C(O)/C=C\C(=O)O` (stereo unspecified), the Time in assay [4] was determined as 13 days; in [3], 6 days. The outcome in [1] was Active.
In the case of `COc1cc(NC(C)CCCN)c2nc(OCc3ccc(Cl)cc3)ccc2c1.O=C(O)/C=C\C(=O)O` (stereo unspecified), the Time in assay [4] was found to be 9 days.
With `COc1cc(NC(C)CCCN)c2nc(OCc3ccc(F)cc3)ccc2c1.O=C(O)/C=C\C(=O)O` (stereo unspecified), the result in assay [1] and in assay [2] was Active. In addition, the Time amounted to 5 days in assay [5] and 91 days in assay [3].
In the case of `COc1ccc(COc2ccc3cc(OC)cc(NC(C)CCCN)c3n2)cc1.O=C(O)/C=C\C(=O)O` (stereo unspecified), the Time in [4] came out at 7 days; in assay [6], 18 days.
In the case of `COc1cc(NC(C)CCCN)c2nc(OCc3ccccc3)ccc2c1` (stereo unspecified), in assay [7], the outcome was Active.
`COc1cc(NC(C)CCCN)c2ncccc2c1.O=P(O)(O)O.O=P(O)(O)O` (stereo unspecified) [PRIMAQUINE PHOSPHATE]: the outcome in [8] was Active. The outcome in assay [9] was inactive. Further, the Time in assay [10] and in [3] was 11 days throughout.
`COc1cc(NC(C)CCCN)c2nc(SCc3ccc(Cl)cc3)ccc2c1.O=C(O)/C=C\C(=O)O` (stereo unspecified): the result in assay [11] was Active. Further, the Time in [6] and in assay [3] was 7 days throughout.
On to `COc1cc(NC(C)CCCN)c2nc(SCc3ccccc3)ccc2c1.O=C(O)/C=C\C(=O)O` (stereo unspecified), for which the Time in assay [4] stood at 15 days; in assay [3], 9 days.
Turning to `COc1cc(NC(C)CCCN)c2nc(OCc3ccc(C(F)(F)F)cc3)ccc2c1.O=C(O)/C=C\C(=O)O` (stereo unspecified), in assay [1], the outcome was Active. The results for the Time in assay [5] and in assay [3] were 9 days and 5 days, respectively.
